Laboratory results as given in patent publication US7521536B2, “Glutamate transporter associated protein” (The Johns Hopkins University School of Medicine, priority 1999, dated 2009).

What was measured:
GTRAP3-18 [1] = assay: GTRAP3-18 antisense oligomers transfected into HEK293 cells; assay type: cell-based
From the text: Western blot analyses and glutamate uptake assays reveal endogenous expression of EAAC1 and GTRAP3-18 protein in HEK cells, but no expression of other transporter subtypes, e.g., GLAST, GLT-1, or EAAT4. Antisense oligomers, targeted to the 5′-GTRAP3-18 transcript, were transfected into HEK293 cells.

GTRAP3-18 [2] = assay: intraventricular GTRAP3-18 antisense oligomers, cortical glutamate uptake; assay type: in vivo
Protocol: To examine modulation of EAAC1 by GTRAP3-18 in vivo, GTRAP3-18 antisense oligomers were administered intraventricularly. Sequences for the novel phosphodiester oligonucleotides used were: sense GTRAP3-18: 5′-GTGAACCTTGCCCGCTC-3′, antisense GTRAP3-18: 5′-GAGCGGGGCAAGGTTCAC-3′ Oligonucleotides (5 μg/μL), separately or in combination were administered intraventricularly over 3-11 days, by mini-osmotic pumps (Alza Corp., Palo Alto, Calif.) as described previously (Rothstein et al., (1994)).

GTRAP3-18 [3] = assay: intraventricular infusion of retinoic acid, cortical GTRAP3-18 and glutamate uptake; assay type: in vivo
Protocol: To test this hypothesis in vivo, retinoic acid was infused intraventricularly (1-20 μM; 0-20 pmol/μL). […] This effect is specifically due to decreased EAAC1 -mediated transport because it was not altered by the glutamate transport inhibitor dihydrokainic acid, at a concentration that predominantly effects GLT-1 (Robinson et al. (1998)). […] Retinoic acid had no effect on glutamate transport by cells expressing GLT-1 or EAAT4.

EAAT4 [4] = assay: cerebellar glutamate uptake after intra-cisternal injection of HSV amplicon vectors; assay type: in vivo, rat; conditions: inhibitor of GLT-1 mediated glutamate transport
EAAT4 [5] = assay: Na+-dependent glutamate uptake in EAAT4 expressing HEK cells transfected with PCTAIRE; assay type: cell-based
Protocol: Transfection of EAAT4 expressing HEK cells with PCTAIRE results in diminished Na^+-dependent glutamate uptake. HEK cells and EAAT4 expressing HEK cells were transfected with 1.0 μg of pCMV PCTAIRE plasmid, and allowed to express for 48 hours. Cell monolayers were then washed with tissue buffer (50 mM Tris, 320 mM sucrose, pH 7.4). The cells were then incubated for 4 min at 37° C. with 1 mL of either sodium-(120 mM NaCl, 25 mM NaHCO3, 5 mM KCl, 2 mM CaCl2, 1 mM KH2PO4, 1 mM MgSO4, 10% glucose and 10 μM glutamate or choline-(120 mM choline-Cl, 25 mM Tris-HCl, 5 mM KCl, 2 mM CaCl2, 1 mM KH2PO4, 1 mM MgSO4, 10% glucose and 10 μM glutamate) containing buffer. Glutamate uptake assays were then performed using L-[^3H]-Glutamate in the presence and absence of Na^+. After rinsing, cells were lysed in 0.1 N NaOH and lysate radioactivity measured using a scintillation counter. Protein content was measured and glutamate uptake calculated as the difference between Na^+ containing and sodium free values per mg of protein.
Inhibition of Na^+-dependent glutamate uptake by PCTAIRE is reversible using the cdk2 inhibitor olomucine. HEK cells expressing EAAT4 were transfected with 1.0 μg of pCMV PCTAIRE plasmid as described above, and allowed to express for 48 hours. Prior to glutamate uptake assay, cells were treated with 100 μM olomucine for 30 minutes at 37° C. as indicated. […]

EAAC1 = biological target: T1, EAAC1 (Rattus norvegicus, UniProt P51907); assay: sodium-dependent [3H]-glutamate transport in HEK293 cells co-expressing EAAC1 and GTRAP3-18; assay type: cell-based
T1 construct: For transient expression in HEK 293T cells, full-length EAAC1 cDNA was subcloned into the EcoR I/BamH I site; expressed in transfected cells; host or cells: HEK293 / HEK 293T, transient, pRK5
T1 sequence (P51907 1-523): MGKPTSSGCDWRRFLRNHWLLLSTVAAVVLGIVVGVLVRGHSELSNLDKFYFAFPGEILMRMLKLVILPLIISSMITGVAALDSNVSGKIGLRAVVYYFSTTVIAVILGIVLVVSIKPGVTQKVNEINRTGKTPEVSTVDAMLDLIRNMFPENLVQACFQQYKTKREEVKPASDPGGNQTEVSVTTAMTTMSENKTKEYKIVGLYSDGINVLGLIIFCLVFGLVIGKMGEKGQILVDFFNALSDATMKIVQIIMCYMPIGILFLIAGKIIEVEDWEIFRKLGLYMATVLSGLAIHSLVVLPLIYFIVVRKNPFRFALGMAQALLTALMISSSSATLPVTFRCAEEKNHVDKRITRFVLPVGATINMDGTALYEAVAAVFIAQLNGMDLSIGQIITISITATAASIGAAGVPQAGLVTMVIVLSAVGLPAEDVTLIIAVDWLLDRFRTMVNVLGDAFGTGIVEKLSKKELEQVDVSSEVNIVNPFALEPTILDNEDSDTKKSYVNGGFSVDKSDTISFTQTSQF
From the text: (§1) To test if GTRAP3-18 modulates EAAC1 function, sodium-dependent [^3H]-glutamate transport was studied in HEK293 cells co-expressing both proteins, 72 hrs after transfection (Rothstein et al. Neuron 16, 675-686 (1996); Lin et al., Neuron 20, 589-602 (1998)). Total glutamate transport progressively decreases with increasing GTRAP3-18 protein expression (FIG. 4). GTRAP3-18 negatively modulates EAAC1-mediated glutamate transport. GTRAP3-18 inhibited EAAC1-mediated transport, but had no effect on EAAT4 (n=6). The co-expression of GTRAP-3-18 has no effect on total EAAC1 protein expression. Analysis of HEK293 cells by confocal microscopy and surface biotinylation reveal no alteration in the membranous localization of EAAC1. Superoxide dismutase (SOD1) was used as a control. […] This effect is specific for EAAC1; co-expression of GTRAP3-18 with EAAT4 has no effect on transport activity. The inhibition of transport is not due to a decrease of EAAC1 protein level by the co-expression of GTRAP3-18, as quantitated by Western blotting. Similarly, the loss of EAAC1 activity is not due to altered protein trafficking; even at high levels of GTRAP3-18 expression, when little EAAC1-mediated transport is observed, EAAC1 surface expression is unaltered as determined by surface biotinylation and confocal microscopy.
To evaluate the biochemical nature of altered transport, kinetic analyses were performed with HEK293 cells co-expressing EAAC1 and GTRAP3-18. […] Similar results are observed with other cell lines (COS7 and C6 glioma).

GST-EAAC1 = biological target: T2, GST-EAAC1 (Rattus norvegicus, UniProt P51907); assay: in vitro cell-free binding to immobilized GST-EAAC1; conditions: [35S]-labeled protein; not to GST alone
T2 construct: made in house; BL21 is described for GST-EAAT4
T2 sequence (P51907 1-523): T1 sequence (P51907 1-523)
Protocol: The interaction of GTRAP3-18 with EAAC1 was examined using in vitro and in vivo methods. For in vitro cell-free binding, EAAC1 was expressed as a fusion protein with glutathione S-transferase (GST), and GTRAP3-18 was produced and labeled with [^35S]-methionine by in vitro transcription and translation. Purified GST or GST-EAAC1 fusion proteins immobilized on glutathione-Sepharose were incubated with [^35S]-labeled GTRAP3-18 protein.

EAAT4 [6] = biological target: T3, EAAT4 (Rattus norvegicus, UniProt O35921); assay: sodium-dependent [3H]-glutamate transport in HEK293 cells co-expressing EAAT4 and GTRAP3-18; assay type: cell-based
T3 sequence (O35921 1-561): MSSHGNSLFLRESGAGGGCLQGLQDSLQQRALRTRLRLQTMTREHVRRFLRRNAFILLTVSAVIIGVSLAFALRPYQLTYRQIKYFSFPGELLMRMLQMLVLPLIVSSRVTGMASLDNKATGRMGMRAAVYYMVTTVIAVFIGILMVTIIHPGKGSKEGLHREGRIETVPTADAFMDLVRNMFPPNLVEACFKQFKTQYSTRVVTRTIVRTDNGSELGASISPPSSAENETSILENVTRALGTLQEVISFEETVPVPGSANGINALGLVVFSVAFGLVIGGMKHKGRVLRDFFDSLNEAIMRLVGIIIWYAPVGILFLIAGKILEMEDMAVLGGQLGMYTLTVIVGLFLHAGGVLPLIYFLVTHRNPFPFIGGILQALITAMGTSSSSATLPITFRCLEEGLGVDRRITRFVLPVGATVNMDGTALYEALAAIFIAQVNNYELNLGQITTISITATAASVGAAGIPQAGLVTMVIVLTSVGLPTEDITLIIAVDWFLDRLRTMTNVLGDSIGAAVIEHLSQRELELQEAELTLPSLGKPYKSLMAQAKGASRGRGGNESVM
From the text: as §1

[7] = eleven days of intraventricular treatment
[8] = antisense 50-100 ng/day intraventricular for 7-10 days, retinoic acid 2.5 μM

5′-GAGCGGGGCAAGGTTCAC-3′ (DNA, all phosphodiester, methylation of C not given here) [antisense GTRAP3-18, phosphodiester oligonucleotide antisense to the 5′-GTRAP3-18 transcript]
EAAC1 protein level (GTRAP3-18 [1]): not affected
endogenous GTRAP3-18 protein level (GTRAP3-18 [1]): reduced
glutamate transport activity (GTRAP3-18 [1]): elevated
Vmax of DHK-insensitive cortical glutamate uptake (GTRAP3-18 [2]; antisense-treated animals, control 1.08): 1.08 nmol/min/mg protein
Km (GTRAP3-18 [2]; antisense-treated animals, control Km=19.7 μM, read-out: Km of DHK-insensitive cortical glutamate uptake): 10 µM
GTRAP3-18 protein level (GTRAP3-18 [2]; [7]): reduction
cortical glutamate uptake (GTRAP3-18 [2]; [7]): significant increase
inhibition of glutamate transport seen with retinoic acid treatment (GTRAP3-18 [3]; [8]): blocks
retinoic acid induction of GTRAP3-18 (GTRAP3-18 [3]; [8]): blocks

5′-GTGAACCTTGCCCGCTC-3′ (chemistry not fully specified) [sense GTRAP3-18, sense control phosphodiester oligonucleotide, reference compound]
cortical glutamate uptake (GTRAP3-18 [2]; [7]): not altered

CC(C)[C@H]1CN[C@H](C(=O)O)[C@H]1CC(=O)O [Dihydrokainic acid, reference compound]
effect on cerebellar glutamate uptake (EAAT4 [4]): no effect
effect of inhibitor on the antisense-induced increase in cortical glutamate uptake (GTRAP3-18 [2]; in vivo): not altered
effect of inhibitor on the retinoic acid-induced decrease of glutamate uptake (GTRAP3-18 [3]; concentration that predominantly effects GLT-1): not altered

Cn1cnc2c(NCc3ccccc3)nc(NCCO)nc21 [olomucine, reference compound]
inhibition of Na+-dependent glutamate uptake by PCTAIRE (EAAT4 [5]; 100 μM for 30 minutes at 37° C. before uptake assay): reversible

PCTAIRE: serine/threonine kinase related to the cyclin-dependent kinase 2 (cdk2) family, interacts with amino terminus of EAAT4
Na+-dependent glutamate uptake (EAAT4 [5]; 1.0 μg pCMV PCTAIRE plasmid, 48 hours): diminished

B1: GTRAP3-18: glutamate transporter EAAC1 associated protein, 188 amino acids (SEQ ID NO:6), rat JWA protein homologue (protein)
chain: MDVNLAPLRAWDDFFPGSDRFARPDFRDISKWNNRVVSNLLYYQTNYLVVAAMMISVVGFLSPFNMILGGIIVVLVFTGFVWAAHNKDILRRMKKQYPTAFVMVVMLASYFLISMFGGVMVFVFGITFPLLLMFIHASLRLRNLKNKLENKMEGIGLKKTPMGIILDALEQQEDSINKFADYISKARE
modifications: Rattus
Vmax of glutamate transport (EAAC1; EAAC1 and GTRAP3-18 co-expressing cells, EAAC1 only 1.02): 0.99 nmol/min/mg protein
Km (EAAC1; EAAC1 and GTRAP3-18 co-expressing cells, EAAC1 only Km=9 μM, n=4): 40 µM
effect on EAAC1-mediated glutamate transport (EAAC1; HEK293 cells, 72 hrs after transfection, n=6): inhibited
decrease in affinity (Eadie-Scatchard plot of glutamate transport) (EAAC1; transfected HEK293 cells, n=4): 4-10 fold
binding to immobilized GST-EAAC1 (GST-EAAC1): specifically binds
effect on EAAT4 glutamate transport (EAAT4 [6]): no effect
